Where a name gives a salt, the structure may show the parent alone. Read-outs that look alike come from different tables or passages of the source.
What was measured:
WNV replicon = assay: microbe, parasite or virus in culture; format: cell-based, West Nile virus (WNV); conditions: for inhibition at 50 µM: read-out: % Replicon Inhibition (Means ± SEM) WNV; for EC50: read-out: WNV replicon EC50; for inhibition of WNV replicon replication (in words): FIG. 1B
DENV2 replicon = assay: microbe, parasite or virus in culture; format: cell-based, Dengue Virus 2 (DENV2); conditions: for inhibition at 50 µM: DENV2, BHK-21, read-out: % Replicon Inhibition (Means ± SEM) DENV2
Vero cells = assay: Cytotoxicity assay, Vero cells; conditions: read-out: WNV replicon CC50; Table 2; unit inferred
BHK-21 cells = assay: Cytotoxicity assay, BHK-21 cells; conditions: read-out: DENV replicon CC50; Table 2; unit inferred
DENV2 [1] = assay: Inhibition of DENV2 infectivity in BHK-21 cells, plaque assay of supernatants; format: cell-based, Dengue Virus 2 (DENV2); conditions: for EC90: read-out: EC90 for inhibition of DENV2 infectivity (plaque assay)
Method: BHK-21 cells were seeded into 12-well plates (10^5 cells/well) and incubated overnight at 37° C. Cells were infected with DENV2 at a multiplicity of infection (MOI) of 0.01 or 1 as indicated. After infection, cells were washed with PBS and incubated with 1.5 mL of MEM supplemented with 2% FBS, 100 I.U./mL penicillin/100 μg/mL streptomycin (referred to as maintenance medium). AQ, at indicated concentrations, was added and cells were incubated at 37° C. for various time points as indicated. DMSO (1%), as a no-compound control (100% infection), and mock-infected control using medium alone (0% infection) were included. Supernatants were collected from the time point experiments and the virus titers determined by plaque assay.
(§1) BHK-21 cells were seeded at ˜10^5 cells/well (12-well plate) or ˜5×10^4 cells/well (24-well plate) and then incubated at 37° C. until reaching 90% confluence. Cells were infected with the supernatants collected from experiments of AQ treatments. Cells were washed with PBS, and incubated with 1.5 mL of overlay medium (maintenance medium containing 1% methylcellulose). The plates were incubated for 3-4 days at 37° C. under 5% CO2. After plaques became visually apparent by microscopy, cells were fixed and stained with 11.1% formaldehyde, 4.75% isopropanol, and 1% crystal violet for 30 minutes. The number of plaque forming units (PFU) per mL was determined.
BHK-21 cells were seeded as described above. AQ, at indicated concentrations in 1% DMSO, was added to DENV2 (MOI of 0.01 or 1)-infected cells during adsorption and/or post-infection. Supernatants were collected at indicated time points post-infection for plaque assays.

DENV2 [2] = assay: Time of addition assay; format: cell-based, Dengue Virus 2 (DENV2)
DENV2 [3] = assay: DENV2 intracellular and extracellular RNA levels by qPCR in BHK-21 cells; format: cell-based, Dengue Virus 2 (DENV2); conditions: AQ 5 μM, 72 hours, p<0.001 vs untreated
DENV2 [4] = assay: Order of addition assay; format: cell-based, Dengue Virus 2 (DENV2); conditions: AQ 5 μM added post-infection; 48 and 72 hours; MOI of 1
DENV2 [5] = assay: Time-course analysis on DENV2 infectivity (indirect plaque assay); format: cell-based, Dengue Virus 2 (DENV2)
Method: as §1
BHK-21 cells were grown in 6-well plates (˜2.5×10^5 cells/well) and were infected with DENV2 at a MOI of 0.01 in the maintenance medium. Cells were washed with PBS and incubated with 3 mL of maintenance medium. AQ at indicated concentrations was added and cells were incubated at 37° C. Supernatants were sampled as indicated and stored at −70° C. for plaque assays.

Rluc enzyme = molecular target: T1, Rluc enzyme (Renilla reniformis, UniProt P27652); format: biochemical; conditions: added to BHK-21/DENV2 replicon cell lysate
T1 sequence (P27652 1-311): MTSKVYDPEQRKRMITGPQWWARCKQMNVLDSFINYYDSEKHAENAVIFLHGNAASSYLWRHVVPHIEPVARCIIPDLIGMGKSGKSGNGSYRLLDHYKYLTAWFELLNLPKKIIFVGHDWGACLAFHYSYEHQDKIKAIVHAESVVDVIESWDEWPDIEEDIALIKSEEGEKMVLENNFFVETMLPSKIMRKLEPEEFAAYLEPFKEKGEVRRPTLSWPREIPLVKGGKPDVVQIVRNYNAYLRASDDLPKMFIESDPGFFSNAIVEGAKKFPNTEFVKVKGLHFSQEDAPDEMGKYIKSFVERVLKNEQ

DENV2 [6] = assay: Direct plaque assay, AQ present only during adsorption (viral entry); format: cell-based, Dengue Virus 2 (DENV2)
[7] = 50 μM in 1% DMSO, Vero/WNV replicon cells

Work on `C=C[C@H]1C[N@@]2CC[C@H]1C[C@H]2[C@H](O)c1ccnc2ccc(OC)cc12` [quinine, hydrobromide hydrate] yielded an inhibition at 50 µM (WNV replicon; West Nile virus, Vero) of 34.9 ± 6.7% and an inhibition at 50 µM (DENV2 replicon; Dengue virus) of 2.8 ± 0.25%.

With chloroquine sulfate the “% Replicon Inhibition (Means ± SEM) WNV” value (WNV replicon) was “— (key: —: “-” refers to no inhibition)” and the “% Replicon Inhibition (Means ± SEM) DENV2” value (DENV2 replicon) was 28.1 ± 3.6%.

`C=CN(C)Cc1cc(Nc2ccnc3cc(Cl)ccc23)ccc1O` [AQ derivative 6] was tested, and the CC50 (Vero cells) was 18.2 ± 1.05 µM, the “% Replicon Inhibition (Means ± SEM) WNV” value (WNV replicon; [7]) was 99.5 ± 0.1% and the EC50 (WNV replicon; Table 2, unit inferred) was 6.29 ± 0.52 µM. For the same molecule, the “inhibition of WNV replicon replication (in words)” value (WNV replicon; Vero/WNV replicon cells) was “strong inhibition”, the “% Replicon Inhibition (Means ± SEM) DENV2” value (DENV2 replicon) was 98.5 ± 1.3% and the “inhibition of DENV2 replicon replication (in words)” value (DENV2 replicon) was “strong inhibition”. The EC50 (DENV2 replicon; read-out: DENV replicon EC50) was 12.5 ± 2.19 µM and the CC50 (BHK-21 cells) was 16.4 ± 0.46 µM.

With `CCN(CC)Cc1cc(Nc2c(C3CCCC3)c(C)nc3cc(Cl)ccc23)ccc1O` [AQ derivative 4] the “% Replicon Inhibition (Means ± SEM) WNV” value (WNV replicon; [7]) was 99.8 ± 0.01%, the EC50 (WNV replicon; Table 2, unit inferred) was 3.31 ± 0.73 µM and the “inhibition of WNV replicon replication (in words)” value (WNV replicon; Vero/WNV replicon cells) was “strong inhibition”. The “% Replicon Inhibition (Means ± SEM) DENV2” value (DENV2 replicon) was 99.99 ± 0.0%, the “inhibition of DENV2 replicon replication (in words)” value (DENV2 replicon) was “strong inhibition” and the EC50 (DENV2 replicon; read-out: DENV replicon EC50) was 15.4 ± 1.31 µM.

Molecule `COc1cc(NC(C)CCCN)c2ncccc2c1` (centres unmarked) [primaquine] has an inhibition at 50 µM (WNV replicon; West Nile virus, Vero) of under 0% and an inhibition at 50 µM (DENV2 replicon; Dengue virus) of under 0%.

With `COc1ccc(Nc2ccnc3cc(Cl)ccc23)cc1CN(CCCl)C(C)CCl` (centres unmarked) [AQ derivative 7] the CC50 (Vero cells) was 34.8 ± 1.78 µM, the “% Replicon Inhibition (Means ± SEM) WNV” value (WNV replicon; [7]) was 97.7 ± 1.1% and the EC50 (WNV replicon; Table 2, unit inferred) was 14.8 ± 1.14 µM. For the same molecule, the “inhibition of WNV replicon replication (in words)” value (WNV replicon; Vero/WNV replicon cells) was “strong inhibition”, the “% Replicon Inhibition (Means ± SEM) DENV2” value (DENV2 replicon) was 93.0 ± 2.6% and the “inhibition of DENV2 replicon replication (in words)” value (DENV2 replicon) was “strong inhibition”. The EC50 (DENV2 replicon; read-out: DENV replicon EC50) was 19 ± 1.73 µM and the CC50 (BHK-21 cells) was 17.7 ± 1.96 µM.

In the case of `CC[N+](C)(CC)Cc1cc(Nc2ccnc3cc(Cl)ccc23)ccc1O` [AQ derivative 2], the “% Replicon Inhibition (Means ± SEM) WNV” value (WNV replicon; [7]) is reported as 50.6 ± 4.4%, the EC50 (WNV replicon; Table 2, unit inferred) is reported as 30.2 ± 6.05 µM and the “% Replicon Inhibition (Means ± SEM) DENV2” value (DENV2 replicon) is reported as 69.9 ± 3.4%. For the same molecule, the EC50 (DENV2 replicon; read-out: DENV replicon EC50) was 29.7 ± 2.26 µM.

With `CCN(CC)Cc1cc(Nc2ccnc3cc(Cl)ccc23)ccc1O` [AQ, 4-[(7-chloroquinolin-4-yl)amino]-2(diethylaminomethyl)phenol] the CC50 (Vero cells) was 24.4 ± 2.49 µM, the “virus infectivity (PFU/mL of supernatant) by plaque assay” value (DENV2 [1]; AQ 5 μM, 72 hours, BHK-21 cells) was “significant reduction” and the EC90 (DENV2 [1]; Dengue virus, DENV2, BHK-21, 96 h) was 2.71 ± 0.85 µM. For the same molecule, the EC50 (DENV2 [1]; Dengue virus, DENV2, MOI of 1, supernatants at 72 hours, BHK-21 cells, read-out: EC50 for inhibition of extracellular release of DENV2 (plaque assay)) was 1.08 ± 0.09 µM, the EC90 (DENV2 [1]; Dengue virus, DENV2, MOI of 1, supernatants at 72 hours, BHK-21 cells) was 2.69 ± 0.4 µM and the plaque reduction (DENV2 [2]; AQ 5 μM added as late as 15 hours post-infection, supernatants at 72 hours, MOI of 1) was at least 90%. The “inhibitory effect when added late” value (DENV2 [2]; AQ 5 μM added at 21 hours post-infection and later) was “lost its inhibitory effect”, the “inhibition of DENV2 infection when added early” value (DENV2 [2]; AQ 5 μM added up to 12 hours post-infection, supernatants at 48 hours) was “inhibited DENV2 infection steadily” and the “DENV2 replication, intracellular and extracellular RNA levels (qRT-PCR)” value (DENV2 [3]) was “effectively inhibited DENV2 replication”. For the same molecule, the “reduction of plaque titer from DMSO control” value (DENV2 [4]) was at least 90%, the “inhibition of DENV2 infectivity, indirect plaque assay” value (DENV2 [5]; AQ 5 μM present during and up to 96 hours post-infection) was “significant inhibition” and the plaque formation reduced (DENV2 [5]; AQ 5 μM, MOI of 0.01, added during adsorption and post-infection) was at least 90%. The “virus titers (PFU/mL) over time course” value (DENV2 [5]; AQ 1, 5, 10, 25 μM, MOI of 0.01, p<0.05) was “reduced significantly in a dose-dependent manner”, the inhibition at 50 µM (WNV replicon; West Nile virus, Vero) was 96.3 ± 0.39% and the EC50 (WNV replicon; West Nile virus, Vero) was 14.6 ± 2.21 µM. The “interference with Rluc enzyme activity” value (Rluc enzyme) was “did not interfere”, the “% Replicon Inhibition (Means ± SEM) DENV2” value (DENV2 replicon) was 76.3 ± 1.6% and the inhibition at 50 µM (DENV2 replicon; Dengue virus) was 76.3 ± 1.6%. For the same molecule, the EC50 (DENV2 replicon; Dengue virus, DENV2, BHK-21, read-out: DENV replicon EC50) was 10.8 ± 1.43 µM, the EC50 (DENV2 replicon; Dengue virus, DENV2, BHK-21, read-out: EC50 in BHK-21/DENV2 replicon cells) was 7.41 ± 1.09 µM and the CC50 (BHK-21 cells) was 80 ± 6.27 µM. For the same molecule, the “plaque titer versus DMSO control, direct plaque assay” value (DENV2 [6]; AQ 5 μM only during adsorption, MOI of 0.01) was “not significantly different”, the “virus titer reduced, direct plaque assay” value (DENV2 [6]; AQ 10 μM during adsorption) was 69.23±1.57% and the “virus titer reduced, direct plaque assay” value (DENV2 [6]; AQ 25 μM during adsorption) was 82.70±2.48%.
